In PubChem BioAssay (NCI) one finds GI50 and TGI data, which are given here for 15 compounds.

What all share (experiment): NCI anticancer screen, dose series, 48 h
In assay [1] the test system is RPMI-8226 leukemia.
In assay [2] the test system is UACC-257 melanoma.
Assay [3] deals with M14 melanoma.
Assay [4] concerns UO-31 renal.
The subject of assay [5] is SNB-19 CNS.
Assay [6] concerns MOLT-4 leukemia.
Assay [7] concerns DU-145 prostate.
For assay [8], the system named is MDA-MB-435.
Assay [9] relates to HS 578T breast.
Assay [10] deals with T-47D breast.

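Step 1: Grow cells in 96-well plates. Step 2: Expose to compound for 48 hours at 5 concentrations. Step 3: Interpolate endpoints linearly; if unreached, use highest concentration. GI50 marks 50% less growth. Definition used: TGI = concentration required for complete inhibition of growth.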 Where only a bound is given, the exact number is not on record here.

Take `COc1cc(N=Nc2ccccc2)cc(/C=N\[N-]C(N)=S)c1[O-].COc1cc(N=Nc2ccccc2)cc(/C=N\[N-]C(N)=S)c1[O-].[Fe+4]`: the GI50 in [1] is 18.2 µM; in [2], more than 100 µM; in [3] it was more than 100 µM; in assay [4], 30.6 µM; in [5], 44.4 µM; in [6], 5.59 µM. Moreover, the TGI was more than 100 µM in assay [1]; more than 100 µM in [2]; more than 100 µM in assay [3]; more than 100 µM in assay [4]; more than 100 µM in assay [5]; 44.9 µM in assay [6].

Regarding `CCN(CC)c1ccc(N=C2C=CC(=O)c3ncccc32)c(C)c1`, the TGI is more than 100 µM in [1]; 15 µM in [2]; 13.4 µM in [3]; 30.4 µM in [4]; 29.8 µM in assay [5]; 6.14 µM in [6].

For `COc1ccc(S(=O)(=O)N/N=C/CN2C(=O)c3ccccc3C2=O)cc1OC`, the TGI in [1], in [2], in assay [3], in assay [4], in [5] and in assay [6] was more than 100 µM each time.

`CC(C)COC(=O)N1N=NC2C3OC(CC3=O)C21` (configuration not stated): the TGI in [1], in assay [2], in assay [3], in [4], in assay [5] and in assay [6] was more than 100 µM in each case.

Take `OCCN(CCO)c1cccc(N(CCO)CCO)c1`: the TGI in assay [1] was more than 100 µM; in assay [2], more than 100 µM; in assay [3] it was more than 100 µM; in assay [4], 92.2 µM; in assay [5], more than 100 µM; in [6], more than 100 µM.

As for `CC(=O)O[C@H]1CC[C@@]2(C)C(CC[C@]3(C)C2CC[C@]2(C)Oc4c(C)cc(O)cc4C[C@@H]23)C1(C)C` (some centres not stated), the TGI in assay [1] was determined as 6.96 µM; in [2] it was 22.8 µM; in assay [3] it was 27.5 µM; in assay [4], 14.3 µM; in [5], 14.4 µM; in assay [6], 9.75 µM.

Take `CNS(=O)(=O)NN(C)S(=O)(=O)c1ccc(Cl)cc1`: the TGI in assay [1], in assay [2], in assay [3], in assay [4], in assay [5] and in assay [6] was more than 100 µM throughout.

Consider `C=C1C(=O)O[C@H]2[C@H]1CC/C(CNC(=O)/C=C/c1cccc(OC)c1)=C\CC[C@@]1(C)O[C@@H]21`, for which the GI50 is 1.19 µM in [7]; 1.31 µM in assay [1]; 1.45 µM in [2]; 1.53 µM in [8]; 1.42 µM in [3]; 1.29 µM in [4]. The GI50 in assay [5] is 3.22 µM; in assay [6] it was 2.12 µM; in assay [9], 2.2 µM. Further, the TGI in [7] stood at 2.49 µM; in [1], 4.97 µM; in assay [2], 2.98 µM; in assay [8] it was 5.04 µM; in assay [3], 3.11 µM; in [4] it was 2.61 µM. In addition, the TGI in assay [5] amounted to 13.5 µM; in assay [6] it was 7.36 µM; in assay [9], 11.2 µM.

For `C[C@]12CC/C(=N\N)C[C@@H]1CC[C@@H]1[C@@H]2CC[C@]2(C)/C(=N/N)CC[C@@H]12`, the GI50 in [7] was more than 100 µM; in assay [1], more than 100 µM; in assay [2] it was more than 100 µM; in assay [8], more than 100 µM; in assay [3], more than 100 µM; in assay [4], 51 µM. For the same compound, the GI50 in assay [10] and in assay [6] was more than 100 µM throughout. Also, the TGI in assay [7], in assay [1], in assay [2], in assay [8], in [3] and in [4] was more than 100 µM throughout. The TGI in assay [10] and in [6] was more than 100 µM throughout.

For the compound `CCOC(=O)c1cc2c(n1Cc1cc(OC)cc(OC)c1)-c1oncc1CCC2`, the GI50 is 0.116 µM in assay [7]; 0.116 µM in assay [1]; 0.0313 µM in [8]; 0.057 µM in assay [3]; 0.392 µM in assay [4]; 0.844 µM in assay [5]. Further, the results for the GI50 in [6] and in assay [9] were 0.387 µM and 0.0492 µM, respectively. Further, the TGI is more than 33.7 µM in [1]; 0.112 µM in assay [8]; more than 100 µM in assay [3]; more than 100 µM in [4]; more than 100 µM in [5]; more than 100 µM in [6]. Further, the TGI in [9] was more than 100 µM.

As for `CC1=C(SCc2ccccc2)C(=O)c2ccccc2C1=O`, the TGI in assay [7] is 34.9 µM; in assay [1], 7.36 µM; in assay [2] it was 31.4 µM; in assay [8] it was 27.9 µM; in [10], more than 100 µM; in assay [6], 4.51 µM.

As for `CN(C)/C=C/c1nnnn1-c1ccc(Cl)cc1`, the GI50 was 14.2 µM in assay [7]; 3.38 µM in assay [1]; 35.6 µM in assay [2]; 5.21 µM in [3]; 23.5 µM in assay [4]; 29 µM in assay [5]. Also, the figures for the GI50 in [6] and in assay [9] were 3.51 µM and 17.5 µM, respectively. In addition, the TGI in [7] is 64.3 µM; in assay [1] it was 18.5 µM; in assay [2] it was more than 100 µM; in assay [3], 44.1 µM; in assay [4] it was 84.8 µM; in [5], 92.9 µM. Further, the TGI is more than 100 µM in [6] and 79.7 µM in [9].

For the compound `CCN(CC)CC(=O)/C=C/c1ccc(C)cc1`, the TGI was more than 100 µM in assay [1]; 46 µM in assay [2]; 32.2 µM in assay [3]; 39.8 µM in assay [4]; more than 100 µM in [5]; more than 100 µM in [6].

For the compound `N#CCCN(CCC#N)c1ccc(/C=C2\N=C(COc3ccc(Cl)cc3Cl)OC2=O)cc1`, the TGI in assay [1], in [2], in assay [3], in assay [4], in [5] and in [6] was more than 100 µM in each case.

In the case of `O=c1[nH]c(=O)n(C2CC(O)C(CO)O2)cc1C(OCC(F)(F)F)OCC(F)(F)F` (configuration not stated), the TGI in assay [1], in [2], in assay [3], in assay [4], in [5] and in [6] was more than 100 µM in each case.
